Holding throughout (assay): whole plant or invertebrate
One assay relates to Housefly Adult. The conditions noted are these: Musca domestica, read-out: Housefly Adult, Contact Spray, % control @ ppm.
Assay [1] concerns Parathion-resistant Two-spotted Spider Mite Egg. Conditions: Tetranychus urticae, foliar, read-out: Parathion-resistant Two-spotted Spider Mite, Egg, % control @ ppm.
The subject of the next assay is Housefly Larvae. The conditions noted are these: Musca domestica, soil, 168 h.
The subject of a further assay is Cabbage Looper Larvae. Conditions: Trichoplusia ni, foliar, read-out: Cabbage Looper Larvae, Leaf Feed, % control @ ppm.
Another assay concerns Tobacco Budworm Larvae. Conditions: Heliothis virescens, foliar, read-out: Tobacco Budworm Larvae, Leaf Feed, % control @ ppm.
The test system of assay [2] is Hock Colorado Potato Beetle 2nd Stg. Larva. Conditions: Leptinotarsa decemlineata, foliar, read-out: Hock Colorado Potato Beetle 2nd Stg. Larva, Leaf Feed, % control @ ppm.
Where [3] appears, read: read-out: 7-Day Exposure Housefly Larvae Treatment, % control, C @ ppm (second sub-column).
Where [4] appears, read: read-out: 7-Day Exposure Housefly Larvae Treatment, % control @ ppm.

Read-outs that look alike come from different tables or passages of the source.

On to `ClC1=NC(Cl)(Cl)C2(Cl)C3CC(C(Cl)C3Cl)C12Cl` (centres unmarked) [Ex. 3, 4-aza-2,3,5,5,6,8,9-heptachlorotricyclo[5.2.1.0^2.6]dec-3-ene], for which the mortality at 100 ppm in the assay on Housefly Adult stood at 83%. Moreover, the mortality at 40 ppm turned out to be 31% in assay [1] and 67% in the assay with Housefly Larvae (setting [3]). Further, the mortality at 500 ppm in the assay with Cabbage Looper Larvae came out at 26%.
As for `CCOP(=S)(OCC)Oc1cc(C)nc(C(C)C)n1` [Diazinon, reference compound], the mortality at 40 ppm with Housefly Larvae (setting [3]) is 37%.
Take `ClC1=C(Cl)C2(Cl)C3c4ccccc4CC3N1C2(Cl)Cl` (centres unmarked) [Ex. 5, 1-aza-4,5-benzo-7,8,9,10,10-pentachlorotricyclo[5.2.1.0^2.6]-8-decene]: in the assay with Housefly Adult, the mortality at 100 ppm stood at 42%. Besides, the mortality at 40 ppm turned out to be 13% in assay [1] and 47% in the assay with Housefly Larvae (setting [4]). Further, the mortality at 500 ppm in the assay with Tobacco Budworm Larvae turned out to be 6%.
Consider `ClC1=C(Cl)C2(Cl)C(c3ccccc3)CN1C2(Cl)Cl` (centres unmarked) [Ex. 4, 1-aza-5-phenyl-2,3,4,7,7-pentachlorobicyclo[2.2.1]-2-heptene], for which the figures for the mortality at 500 ppm (in assay [2]; with Tobacco Budworm Larvae) were 50% and 66%, respectively. Further, the mortality at 100 ppm with Housefly Adult is 10%. In addition, the mortality at 40 ppm in assay [1] was 77%; in the assay on Housefly Larvae (setting [4]), 43%.

(Values after patent publication US4322528A (priority 1979, dated 1982).)
